Test results published in PubChem BioAssay AID330 (DTP/NCI, 2004).
Where “and” joins values, the source holds several entries; their conditions need not be identical. Equal values may be shown once. Toxic doses and inconclusive results are not listed.

System: P388 leukemia ip, CD2F1 mice, survival T/C
Assay: NCI In Vivo Anticancer Drug Screen. Data for tumor model P388 Leukemia (intraperitoneal) in CD2F1 (CDF1) mice
Conditions: endpoint: median survival time, higher = longer survival
Outline: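 Mice carrying the transplanted tumor received test compound or vehicle. Survival was recorded in each group, and the value is the treated-group measurement divided by that of the vehicle-treated control group.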

[1] = dose: 100.0 mg/kg/injection, schedule: Q01DX001 (ip), vehicle: Klucel (hydroxypropylcellulose) (HPC)
[2] = dose: 200.0 mg/kg/injection, schedule: Q01DX001 (ip), vehicle: Klucel (hydroxypropylcellulose) (HPC)
[3] = dose: 50.0 mg/kg/injection, schedule: Q01DX005 (ip), vehicle: saline with Tween-80
[4] = dose: 100.0 mg/kg/injection, schedule: Q01DX005 (ip), vehicle: saline with Tween-80
[5] = dose: 50.0 mg/kg/injection, schedule: Q01DX009 (ip), vehicle: Klucel (hydroxypropylcellulose) (HPC)
[6] = dose: 25.0 mg/kg/injection, schedule: Q04DX002 (ip), vehicle: saline with Tween-80

With Cn1c(C(=O)c2cc3ccccc3n2C)cc2ccccc21 the T/C (dose: 50.0 mg/kg/injection, schedule: Q01DX009 (ip), vehicle: saline) was 100 % of control, the T/C (dose: 100.0 mg/kg/injection, schedule: Q01DX009 (ip), vehicle: saline) was 97 % of control and the T/C (dose: 200.0 mg/kg/injection, schedule: Q01DX009 (ip), vehicle: saline) was 103 % of control.
For O=c1[nH]c2nc3ccccc3n2c(=O)c2ccccc12, the T/C [1] was 98 % of control, the T/C [2] was 98 % of control and the T/C (dose: 400.0 mg/kg/injection, schedule: Q01DX001 (ip), vehicle: Klucel (hydroxypropylcellulose) (HPC)) was 95 % of control.
For O=C1N=NC2=C1c1c3ccccc3c(O)n1CC2, the T/C (dose: 25.0 mg/kg/injection, schedule: Q01DX005 (ip), vehicle: saline with Tween-80) was 99 % of control, the T/C [3] was 101 % of control and the T/C [4] was 95 % of control.
Cc1nnc2cccc(Cl)n12 was tested, and the T/C (dose: 50.0 mg/kg/injection, schedule: Q01DX001 (ip), vehicle: Klucel (hydroxypropylcellulose) (HPC)) was 106 % of control, the T/C [1] was 106 % of control and the T/C [2] was 99 % of control.
With CC1=CC(O)(C2(C)OC(C)(C)OC2=O)CCC1 (configuration not stated) the T/C (dose: 100.0 mg/kg/injection, schedule: Q01DX001 (ip), vehicle: saline) was 100 % of control, the T/C (dose: 200.0 mg/kg/injection, schedule: Q01DX001 (ip), vehicle: saline) was 100 % of control and the T/C (dose: 400.0 mg/kg/injection, schedule: Q01DX001 (ip), vehicle: saline) was 100 % of control.
With CCOC(=O)/C(C=NC1CC(N=C/C(C(=O)OCC)=C(\C)O)CC(N=C/C(C(=O)OCC)=C(\C)O)C1)=C(/C)O (configuration not stated) the T/C (dose: 6.25 mg/kg/injection, schedule: Q01DX009 (ip), vehicle: Klucel (hydroxypropylcellulose) (HPC)) was 106 % of control, the T/C (dose: 12.5 mg/kg/injection, schedule: Q01DX009 (ip), vehicle: Klucel (hydroxypropylcellulose) (HPC)) was 103 % of control and the T/C (dose: 25.0 mg/kg/injection, schedule: Q01DX009 (ip), vehicle: Klucel (hydroxypropylcellulose) (HPC)) was 97 % of control. For the same compound, the T/C [5] was 93 % of control.
COP(=O)(CCC1OCCO1)OC was tested, and the T/C [3] was 104 % of control, the T/C [4] was 104 % of control and the T/C (dose: 200.0 mg/kg/injection, schedule: Q01DX005 (ip), vehicle: saline with Tween-80) was 99 % of control.
CC(C)=CCC(OC1OC(CO)C(O)C(O)C1O)C1=CC(=O)c2c(O)ccc(O)c2C1=O (configuration not stated) was tested, and the T/C (dose: 12.5 mg/kg/injection, schedule: Q04DX002 (ip), vehicle: saline with Tween-80) was 119 % of control and the T/C [6] was 115 % of control.
With CC1=CC(C)CN(C)C1 (configuration not stated) the T/C (dose: 6.25 mg/kg/injection, schedule: Q01DX005 (ip), vehicle: saline) was 102 % of control, the T/C (dose: 12.5 mg/kg/injection, schedule: Q01DX005 (ip), vehicle: saline) was 100 % of control and the T/C (dose: 25.0 mg/kg/injection, schedule: Q01DX005 (ip), vehicle: saline) was 105 % of control.
For c1ccc([P+](NCCN[P+](c2ccccc2)(c2ccccc2)c2ccccc2)(c2ccccc2)c2ccccc2)cc1, the T/C (dose: 6.25 mg/kg/injection, schedule: Q01DX009 (ip), vehicle: saline) was 97 % of control and the T/C (dose: 12.5 mg/kg/injection, schedule: Q01DX009 (ip), vehicle: saline) was 100 % of control.
For C=C(COC(=O)Nc1cc(Cl)ccc1C)C(=O)O, the T/C [5] was 105 % of control.
CN(C)C(=O)C(=O)C1C=Cc2ccccc21 (configuration not stated) was tested, and the T/C (dose: 100.0 mg/kg/injection, schedule: Q01DX009 (ip), vehicle: saline with Tween-80) was 100 % of control, the T/C (dose: 200.0 mg/kg/injection, schedule: Q01DX009 (ip), vehicle: saline with Tween-80) was 90 % of control and the T/C (dose: 400.0 mg/kg/injection, schedule: Q01DX009 (ip), vehicle: saline with Tween-80) was 95 % of control.
CC1CC2OC(=O)C(CN3CC3)C2CC2(C)C(O)CC(O)C12 (configuration not stated) was tested, and the T/C [6] was 108 % of control and 93 % of control, the T/C (dose: 50.0 mg/kg/injection, schedule: Q04DX002 (ip), vehicle: saline with Tween-80) was 101 % of control and 113 % of control and the T/C (dose: 100.0 mg/kg/injection, schedule: Q04DX002 (ip), vehicle: saline with Tween-80) was 102 % of control and 113 % of control.
For C=C[C@]1(C)C=C2C(O)CC3C(C)(C)CCC[C@]3(CO)C2CC1 (some centres not stated), the T/C (dose: 60.0 mg/kg/injection, schedule: Q01DX005 (ip), vehicle: saline with Tween-80) was 100 % of control, the T/C (dose: 120.0 mg/kg/injection, schedule: Q01DX005 (ip), vehicle: saline with Tween-80) was 97 % of control and the T/C (dose: 240.0 mg/kg/injection, schedule: Q01DX005 (ip), vehicle: saline with Tween-80) was 96 % of control.
In the case of O=C(O)C1CCCC2C(O)CCC(=O)C12 (configuration not stated), the T/C (dose: 100.0 mg/kg/injection, schedule: Q04DX003 (ip), vehicle: saline) is reported as 105 % of control, the T/C (dose: 200.0 mg/kg/injection, schedule: Q04DX003 (ip), vehicle: saline) is reported as 110 % of control and the T/C (dose: 400.0 mg/kg/injection, schedule: Q04DX003 (ip), vehicle: saline) is reported as 105 % of control.
